Assays:
STAT3 (pSer727) = test: MILLIPLEX MAP 9-Plex, STAT3 active form in A431 lysates; type: cell-based, human; settings: 10 μM; for STAT3 (pSer727) fluorescence intensity: A431 cell lysates, 1 h, M ± mx, control 70.7 ± 18.3
Text: We used the MILLIPLEX MAP Multi-Pathway Magnetic Bead 9-Plex-Cell Signaling Multiplex Assay, which allows the simultaneous detection of nine phosphorylated proteins that are markers of the main intracellular signaling pathways (phosphorylation site is indicated in parentheses), a universal transcription factor that controls the expression of immune response genes; apoptosis and cell cycle NFκB (pS536); cAMP-dependent transcription factor (CREB (pS133); mitogen-activated kinase p38 (pT180/pY182); stress-activated protein kinase JNK (pT183/pY185); ribosomal […]; transcription factors STAT3 (pS727) and STAT5A/B (pY694/699); protein kinase B (Akt) (pS473); and kinase regulated by extracellular signals ERK1/2 (pT185/pY187).
The effect of various concentrations of PPA derivatives on the cell culture was studied using xCelligence RTCA equipment (AceaBioscience, San Diego, CA, USA). The concentration closest to the IC50 (10 μM) was chosen as the experimental concentration. The selected concentration of phaeosphaeride A derivatives allows for the assessment of the early effect of compounds on cells and compares their effectiveness. In this experiment, the signaling pathways Akt (pSer473), p70S6K (pThr412), NFkB (p65-pSer536), and CREB (pSer133) were not activated (Table 8). The stress-activated signaling pathways ERK/MAP kinase 1/2 (pThr185/pTyr187), JNK (pThr183/pTyr185), and p38 (pThr180/pTyr182) were activated for these compounds.
We used a MILLIPLEX MAP Multi-Pathway Magnetic Bead 9-Plex-Cell Signaling Multiplex Assay kit (Merck/Millipore), according to the manufacturer’s protocol. A431 cells were cultured in DMEM with 10% FBS in 24-well plates. Compounds were added to the subconfluent cells at a concentration of 10 μM in DMEM medium for 1 h. Each compound was added in 5 experimental repeats. Cell lysates were prepared with lysis buffer (Millipore) with protease inhibitors (Complete, Roche); the protein concentration in the lysates was determined by the Lowry method. In samples equalized in protein concentration, the active forms of kinase cascades were determined using a Bio-Plex 200 fluorescent analyzer (Bio-Rad).

K562/i-S9_Dox = test: MTT cytotoxicity, resistant K562/i-S9_Dox cells (P-gp overexpression); type: cell-based, human; settings: Homo sapiens, K562; resistant version, doxorubicin selected, MTT, 48 h
Text: At the next stage, the cytotoxic activity of compounds 1, 2, and 9 (Scheme 2) was investigated on several pairs of cell lines that differ in the expression of P-gp and the method by which they were obtained. K562/i-S9 cells are the result of the ABCB1 transfection into K562 cells, which increases P-gp expression, but should not seriously affect other signaling pathways that could lead to drug resistance. K562/i-S9_Dox cells were obtained from K562/i-S9 by selection with low concentrations of doxorubicin to increase P-gp expression. Subline HBL-100/Dox is a derivative of HBL-100 cells, obtained by long-term selection with increasing concentrations of doxorubicin, which led not only to an increase in P-gp expression, but also to a change in the signaling pathways in this subline. Cells of the K562/i-S9_Dox subline express the highest level of P-gp: 94.7% ± 2.3 (p < 0.0001 relative to K562, and p = 0.04 relative to K562/i-S9). In cells of the K562/i-S9 line, the expression of P-gp is 80% ± 8.2 (p < 0.0001 relative to K562). At 0.7% ± 0.5, P-gp is practically not expressed in K562 cells (Figure 1).
(§1) Modifications of cell lines: K562/i-S9 is a clone obtained after transfection of K562 cells with the ABCB1 (MDR1) gene-encoding P-glycoprotein [36]. Cells HBL-100/Dox and K562/i-S9_Dox are cells obtained by long-term selection with increasing concentrations of doxorubicin (Sigma-Aldrich, St. Louis, MO, USA) from HBL-100 and K562/i-S9 cells, respectively. MCF-7, A594 cells, and primary cultures of soft tissue sarcomas were cultured in DMEM medium (PanEko, Russia), PC-3 and HCT-116 cells and all suspension cultures in RPMI1640 medium (PanEko, Russia) supplemented with 10% fetal bovine serum (GE Healthcare LifeSciences, USA), and gentamicin at a concentration of 40 μg/mL at 37 °C and 5% CO2.
(§2) Cells MCF-7, PC-3, A549, and HCT-116, and primary cultures of STSwere seeded in 96-well plates, 6 × 10^3 cells per well in 90 μL of culture medium. Suspension cultures were seeded at a concentration of 25 × 10^3 cells per well in 135 μL of medium. The test substances were dissolved in DMSO (Applichem, Council Bluffs, IA, USA) until a concentration of 1 × 10^−^2 M was obtained; for the subsequent dilution of the substances, a serum-free culture medium was used. The next day, for adhesive cultures, and on the same day, for suspension cultures, substances were added to the plates in a volume of 10 μL (adhesive cultures) and 15 μL (suspension cultures) per well at various concentrations; each concentration was added in 3–4 repetitions. The cells were cultured in the presence of substances for 48 h. Then, MTT reagent (PanEko, Moscow, Russia) was added to the wells at a concentration of 5 mg/mL in a volume of 20 μL per well. After 1.5–2 h, the medium with the reagent was removed, and the precipitate of the crystals of formazan was dissolved in 60 μL of DMSO. The optical density was determined using a Multiskan FC spectrophotometer (Thermo Scientific, Waltham, MA, USA) at a wavelength of 540 nm.
(§3) Based on the results of the experiments, a schedule was plotted of the dependence of the percentage of surviving cells (from control) on the concentration of the compound, and the sought concentration IC50 was calculated. The experiments were carried out in 3–4 times.

HBL-100 = test: MTT cytotoxicity, sensitive HBL-100 cells; type: cell-based; settings: Homo sapiens, 48 h
Text: (§4) Cell cultures used in the work: adhesive cultures HBL-100 cells (cells of a normal mammary gland epithelium, immortalized by the SV40 virus and acquired tumorigenicity); MCF-7 breast cancer cells; PC-3 prostate adenocarcinoma cells; HCT-116 colorectal cancer cells; non-small cell lung cancer cells A549; human embryonic kidney cells HEK293; suspension cultures (NCI-H929 and RPMI8226 multiple myeloma cells), K562 chronic myeloid leukemia cells; THP-1 acute monocytic leukemia cells; and Jurkat acute T-cell leukemia cells. We also used several primary cultures of soft tissue sarcomas at 3–4passeges, kindly provided by T.I. Fetisov (The Ethics Committee of N.N. Blokhin NMRCO, protocol code 18-28-09095 and date of approval 28 September 2018).
as §2, §3

A549 = test: MTT cytotoxicity, A549 non-small cell lung cancer cells; type: cell-based, human; settings: 48 h; for IC50: Homo sapiens, A549, adhesive tumor culture
Text: as §4, §1, §2, §3

[1] = test system: CMT № 1 (Extraskeletal Ewing’s Sarcoma); test: MTT cytotoxicity, primary culture of soft tissue sarcoma CMT № 1; type: cell-based; settings: Homo sapiens, 48 h
Text: It is believed that such cultures have a molecular profile that corresponds more with cells from the human body, in comparison with that of stable cultures of tumor cells (Table 3).
as §4, §1
as §2, with “Then, MTT reagent (PanEko, Moscow, Russia) was added to the wells at a concentration of 5 mg/mL in a volume of 20 μL per well. After 1.5–2 h, the medium with the reagent was removed, and the precipitate of the crystals of formazan was dissolved in 60 μL of DMSO.” left out
Based on the results of the experiments, a schedule was plotted of the dependence of the percentage of surviving cells (from control) on the concentration of the compound, and the sought concentration IC50 was calculated. […]

| Compound | STAT3 (pSer727) fluorescence intensity (STAT3 (pSer727)) | IC50 (K562/i-S9_Dox) | IC50 (HBL-100) | IC50 (A549) | IC50 [1] | activation of transcription factor STAT3 (pSer727), in words (STAT3 (pSer727); A431 cells) | IC50 value, A549 (A549; adhesive tumor culture) |
| --- | --- | --- | --- | --- | --- | --- | --- |
| C=C1C2=C(C(=O)N1OC)[C@@H](N1CCCC1)[C@@](C)(O)[C@H](CCCCC)O2 [Compound 1] | 163.0 ± 20.7 *↑ rel. units | 3.1 ± 0.8 µM | 6.2 ± 0.8 µM | 14 ± 0.1 µM | 2.6 ± 1.1 µM | – | – |
| C=C1C2=C(C(=O)N1OC)[C@@H](N(C)C)[C@@](C)(O)[C@H](CCCCC)O2 [Compound 2, (2S,3R,4R)-4-(dimethylamino)-3-hydroxy-6-methoxy-3-methyl-7-methylene-2-pentyl-3,4,6,7-tetrahydropyrano[2,3-c]pyrrol-5(2H)-one] | 272.3 ± 50.5 *↑ rel. units | 2.4 ± 0.9 µM | 4.9 ± 1 µM | 9.6 ± 2.1 µM | 1.6 ± 0.7 µM | slightly activated | – |
| C=C1C2=C(C(=O)N1OC)[C@@H](N(CCCC)CCCC)[C@@](C)(O)[C@H](CCCCC)O2 [Compound 5, (2S,3R,4R)-4-(dibutylamino)-3-hydroxy-6-methoxy-3-methyl-7-methylene-2-pentyl-3,4,6,7-tetrahydropyrano[2,3-c]pyrrol-5(2H)-one] | 123.4 ± 8.3 *↑ rel. units | – | – | 23.4 ± 2.3 µM | – | – | – |
| C=C1C2=C(C(=O)N1OC)[C@@H](N(CC)CCO)[C@@](C)(O)[C@H](CCCCC)O2 [Compound 9, (2S,3R,4R)-4-[ethyl(2-hydroxyethyl)amino]-3-hydroxy-6-methoxy-3-methyl-7-methylene-2-pentyl-3,4,6,7-tetrahydropyrano[2,3-c]pyrrol-5(2H)-one] | 151.5 ± 28.7 rel. units | 3.3 ± 0.6 µM | 6.5 ± 0.8 µM | 8.9 ± 0.2 µM | 2.9 ± 1.1 µM | – | – |
| CCCCC[C@@H]1OC2=C(C(=O)N(OC)/C2=C\n2cnnc2)C(n2cnnc2)[C@@]1(C)O (some centres unmarked) [Compound 10] | 178.9 ± 13.4 *↑ rel. units | – | – | – | – | – | not active |
